In patent US5998521A, “Aqueous fluoropolymer compositions and method of preparing the same” (3M Innovative Properties Company, priority 1996, dated 1999):

What was measured:
[1] = Surface tension and critical micelle concentration of aqueous surfactant solutions; format: physicochemical; conditions: deionized water; for Surf. Tens.: at the CMC
Procedure: Critical Micelle Concentration (CMC): The critical micelle concentration is defined as the concentration at which further surface tension is no longer lowered with increasing levels of surfactant. To determine CMC, surface tension is measured as a function of surfactant concentration using a K-12 Processor Tensiometer in conjunction with a 665 Dosimat automatic surfactant injection device (also commercially available from Kruss GmbH). Surface tension is then plotted vs. log concentration and the data points are connected. The resulting curve has a nearly horizontal flat portion at concentrations above the CMC and has a negative steep slope at concentrations below the CMC. The CMC is defined as the lowest surfactant concentration in the horizontal flat portion of the curve.
(§1) Then the critical micelle concentration (CMC) was determined for each surfactant.
as §1

[2] = Thermogravimetric analysis of neat perfluorocarboxylate salts; format: physicochemical; conditions: neat salt, nitrogen, 10° C./min
Description: Thermal degradation measurements were made on a series of neat perfluorocarboxylate salts, including several α-branched open chain structures (Examples N2-N9), a primarily linear open chain structure (Example N10-Fluorad™ FC-143 Fluorochemical Surfactant, commercially available from 3M Company, St. Paul, Minn.), and a closed chain (i.e., cyclic) structure (Example N11--made by the electrochemical fluorination of benzoic acid and hydrolysis in the presence of KOH, as described in U.S. Pat. No. 2,567,011 (Diesslin et al.)).
The perfluorocarboxylate salts were tested using a Perkin-Elmer TGA 7 thermogravimetric analysis apparatus and a salt sample size of approximately 5 mg, a heating rate of 10° C./min, and a nitrogen gas flow rate of 40-45 mL/min. Using the TGA 7 software, the following temperatures were recorded: (1) the onset temperature of decomposition, (2) the temperature at which 50% of the sample weight was lost, and (3) the temperature at which 90% of the sample weight was lost.

Compound | Surf. Tens. ([1]; Table 3) [dynes/cm] | CMC ([1]; Table 3) [ppm] | Surf. Tens. ([1]; Table 5) [dynes/cm] | CMC ([1]; Table 5) [ppm] | further results
C[N+](C)(CCO)CCCNC(=O)C(F)(C(F)(F)F)C(F)(F)C(F)(F)C(F)(F)C(F)(F)C(F)(F)F (centres unmarked) [Example F3] | 17.0 | 1000 |  |  | 
O=C(O)C(F)(C(F)(F)F)C(F)(F)C(F)(F)C(F)(F)C(F)(F)C(F)(F)C(F)(F)C(F)(F)C(F)(F)F (centres unmarked) [Example M24, C8 F17 CF(CF3)COO^- K^+] |  |  | 16.4 | 3000 | 
O=C(O)C(F)(C(F)(F)F)C(F)(F)C(F)(F)C(F)(F)C(F)(F)C(F)(F)C(F)(F)C(F)(F)F (centres unmarked) [Example M30, C7 F15 CF(CF3)COO^- 1/2[H3 N^+ C2 H4 NHC2 H4 N^+ H3]] |  |  | 16.2 | 3000 | 
O=C(O)C1(F)C(F)(F)C(F)(F)C(F)(F)C(F)(F)C1(F)F [U.S. Pat. No. 2,567,011, reference compound] |  |  |  |  | Temperature for: 50% loss [2]: 110 °C; Temperature for: 90% loss [2]: 120 °C; Temperature for: Onset [2]: 100 °C
O=C(O)C(F)(C(F)(F)F)C(F)(F)C(F)(F)C(F)(F)C(F)(F)C(F)(F)C(F)(F)C(F)(F)C(F)(F)C(F)(F)C(F)(F)F (centres unmarked) [Example M18, C10 F21 CF(CF3)COO^- H4 N^+] |  |  | 14.8 | 600 | Temperature for: 50% loss [2]: 181 °C; Temperature for: 90% loss [2]: 188 °C; Temperature for: Onset [2]: 164 °C
O=C(O)C(F)(C(F)(F)F)C(F)(F)C(F)(F)C(F)(F)C(F)(F)C(F)(F)C(F)(F)C(F)(F)F (centres unmarked) [Example M27, C7 F15 CF(CF3)COO^- Li^+] |  |  | 24.1 | 3500 | 
O=C([O-])CC[N+]1(CCCNC(=O)C(F)(C(F)(F)F)C(F)(F)C(F)(F)C(F)(F)C(F)(F)C(F)(F)C(F)(F)C(F)(F)F)CCOCC1 (centres unmarked) [Example K3] | 19.2 |  |  |  | 
O=C(NCCOC(=O)C(F)(C(F)(F)F)C(F)(F)C(F)(F)C(F)(F)C(F)(F)C(F)(F)C(F)(F)F)c1cc[n+]([O-])cc1 (centres unmarked) [Example E11] | 15.5 | 1000 |  |  | 
O=C(O)C(F)(C(F)(F)F)C(F)(F)C(F)(F)C(F)(F)C(F)(F)C(F)(F)F (centres unmarked) [Example M15, C5 F11 CF(CF3)COO^- H4 N^+] |  |  | 22.1 | > 10000 | Temperature for: 50% loss ([2]; listed as N2): 178 °C; Temperature for: 90% loss ([2]; listed as N2): 188 °C; Temperature for: Onset ([2]; listed as N2): 166 °C
C[n+]1ccc(C(=O)NCCOC(=O)C(F)(C(F)(F)F)C(F)(F)C(F)(F)C(F)(F)C(F)(F)C(F)(F)C(F)(F)F)cc1 (centres unmarked) [Example F2] | 15.5 | 30 |  |  | 
O=C(O)C(F)(C(F)(F)F)C(F)(F)C(F)(F)C(F)(F)C(F)(F)C(F)(F)C(F)(F)F (centres unmarked) [Example M22, C6 F13 CF(CF3)COO^- K^+] |  |  | 17.5 | 10000 | 
C[N+](C)(CCCNC(=O)C(F)(C(F)(F)F)C(F)(F)C(F)(F)C(F)(F)C(F)(F)C(F)(F)C(F)(F)C(F)(F)F)CCC(=O)[O-] (centres unmarked) [Example K1, C7 F15 CF(CF3)CONH(CH2)3 N^+ (CH3)2C2 H4 COO^-] | 16.6 | 125 |  |  | 
O=C(NCCOC(=O)C(F)(C(F)(F)F)C(F)(F)C(F)(F)C(F)(F)C(F)(F)C(F)(F)C(F)(F)C(F)(F)F)c1cc[n+]([O-])cc1 (centres unmarked) [Example E10] | 14.5 | 400 |  |  | 
O=C(O)C(F)(C(F)(F)F)C(F)(F)C(F)(F)C(F)(F)C(F)(F)C(F)(F)C(F)(F)F (centres unmarked) [Example M25, C6 F13 CF(CF3)COO^- Na^+] |  |  | 19.8 | 10000 | 
O=C(O)C(F)(C(F)(F)C(F)(F)F)C(F)(F)C(F)(F)C(F)(F)C(F)(F)C(F)(F)C(F)(F)F (centres unmarked) [Example M19, C6 F13 CF(C2 F5)COO^- H4 N^+] |  |  |  |  | Temperature for: 50% loss [2]: 171 °C; Temperature for: 90% loss [2]: 188 °C; Temperature for: Onset [2]: 153 °C
C8 F17 CF(CF3)CO(OCH2 CH2)16 OCH3 [Example J1] | 22 | 150 |  |  | 
O=C(O)C(F)(C(F)(F)F)C(F)(F)C(F)(F)C(F)(F)C(F)(F)C(F)(F)C(F)(F)C(F)(F)F (centres unmarked) [Example M23, C7 F15 CF(CF3)COO^- K^+] |  |  | 15.0 | 2500 | 
O=C(OCCc1cccc[n+]1[O-])C(F)(C(F)(F)F)C(F)(F)C(F)(F)C(F)(F)C(F)(F)C(F)(F)C(F)(F)C(F)(F)F (centres unmarked) [Example E13] | 15.0 | 6000 |  |  | 

Compound | Surf. Tens. ([1]; Table 3) [dynes/cm] | CMC ([1]; Table 3) [ppm] | Surf. Tens. ([1]; Table 5) [dynes/cm] | CMC ([1]; Table 5) [ppm] | further results
C[N+](C)([O-])CCCN(CCO)C(=O)C(F)(C(F)(F)F)C(F)(F)C(F)(F)C(F)(F)C(F)(F)C(F)(F)C(F)(F)C(F)(F)F (centres unmarked) [Example E8, C7 F15 CF(CF3)CON(C2 H4 OH)(CH2)3 N^+ (CH3)2 O^-] | 16.6 | 125 |  |  | 
O=C(NCCC[N+]1(CCO)CCOCC1)C(F)(C(F)(F)F)C(F)(F)C(F)(F)C(F)(F)C(F)(F)C(F)(F)C(F)(F)C(F)(F)F (centres unmarked) [Example F5] | 20.8 |  |  |  | 
C[N+](C)(CCCN(CCC[N+](C)(C)CCC(=O)[O-])C(=O)C(F)(C(F)(F)F)C(F)(F)C(F)(F)C(F)(F)C(F)(F)C(F)(F)C(F)(F)C(F)(F)F)CCC(=O)[O-] (centres unmarked) [Example K4] | 23.6 | 100 |  |  | 
O=C(O)C(F)(C(F)(F)F)C(F)(F)C(F)(F)C(F)(F)C(F)(F)C(F)(F)F (centres unmarked) [Example M28, C5 F11 CF(CF3)COO^- Na^+] |  |  |  |  | Temperature for: 50% loss ([2]; listed as N8): 250 °C; Temperature for: 90% loss ([2]; listed as N8): 263 °C; Temperature for: Onset ([2]; listed as N8): 236 °C
CN(C)CCCN(CCCN(C)C)C(=O)C(F)(C(F)(F)F)C(F)(F)C(F)(F)C(F)(F)C(F)(F)C(F)(F)C(F)(F)C(F)(F)F (centres unmarked) [Example F9, C7 F15 CF(CF3)CON[C3 H6 N^+ (CH3)2 H]2 2[-OOCCH3]] | 22.0 | 1000 |  |  | 
O=C(O)C(F)(C(F)(F)F)C(F)(F)C(F)(F)C(F)(F)C(F)(F)C(F)(F)C(F)(F)C(F)(F)C(F)(F)F (centres unmarked) [Example M17, C8 F17 CF(CF3)COO^- H4 N^+] |  |  | 14.7 | 2300 | Temperature for: 50% loss [2]: 162 °C; Temperature for: 90% loss [2]: 184 °C; Temperature for: Onset [2]: 142 °C
C[N+](C)([O-])CCCNC(=O)C(F)(C(F)(F)F)C(F)(F)C(F)(F)C(F)(F)C(F)(F)C(F)(F)C(F)(F)C(F)(F)C(F)(F)C(F)(F)C(F)(F)F (centres unmarked) [Example E5, C10 F21 CF(CF3)CONH(CH2)3 N^+ (CH3)2 O^-] | 17.1 | 500 |  |  | 
C[N+](C)([O-])CCCNC(=O)C(F)(C(F)(F)F)C(F)(F)C(F)(F)C(F)(F)C(F)(F)C(F)(F)C(F)(F)F (centres unmarked) [Example E3, C6 F13 CF(CF3)CONH(CH2)3 N^+ (CH3)2 O^-] | 16.6 | 100 |  |  | 
C6 F13 CF(CF3)CON(C3 H6 SO3^-)(CH2)3 N^+ (CH3)2 H [Example K2] | 20.3 | 500 |  |  | 
C[N+](C)(CCO)CCCNC(=O)C(F)(C(F)(F)F)C(F)(F)C(F)(F)C(F)(F)C(F)(F)C(F)(F)C(F)(F)C(F)(F)F (centres unmarked) [Example F4] | 19.0 | 300 |  |  | 
C[n+]1ccc(C(=O)NCCOC(=O)C(F)(C(F)(F)F)C(F)(F)C(F)(F)C(F)(F)C(F)(F)C(F)(F)C(F)(F)C(F)(F)F)cc1 (centres unmarked) [Example F1] | 15.0 | 500 |  |  | 
O=C(OCCc1cccc[n+]1[O-])C(F)(C(F)(F)F)C(F)(F)C(F)(F)C(F)(F)C(F)(F)C(F)(F)C(F)(F)F (centres unmarked) [Example E12] | 18.3 | 8000 |  |  | 
C[N+](C)([O-])CCCNC(=O)C(F)(C(F)(F)F)C(F)(F)C(F)(F)C(F)(F)C(F)(F)C(F)(F)C(F)(F)C(F)(F)C(F)(F)F (centres unmarked) [Example E4, C8 F17 CF(CF3)CONH(CH2)3 N^+ (CH3)2 O^-] | 16.5 | 20 |  |  | 
C[N+](C)([O-])CCCNC(=O)C(F)(C(F)(F)F)C(F)(F)C(F)(F)C(F)(F)C(F)(F)C(F)(F)F (centres unmarked) [Example E2, C5 F11 CF(CF3)CONH(CH2)3 N^+ (CH3)2 O^-] | 17.5 | 500 |  |  | 
O=C(O)C(F)(C(F)(F)F)C(F)(F)C(F)(F)C(F)(F)C(F)(F)C(F)(F)C(F)(F)C(F)(F)F (centres unmarked) [Example M20, C7 F15 CF(CF3)COO^- H3 N^+ C2 H4 OH] |  |  | 15.0 | 500 | 
C[N+](C)([O-])CCCNC(=O)C(F)(C(F)(F)F)C(F)(F)C(F)(F)C(F)(F)C(F)(F)C(F)(F)C(F)(F)C(F)(F)F (centres unmarked) [Example E1, C7 F15 CF(CF3)CONH(CH2)3 N^+ (CH3)2 O^-] | 16.3 | 20 |  |  | 
O=C(O)C(F)(C(F)(F)F)C(F)(F)C(F)(F)C(F)(F)C(F)(F)C(F)(F)C(F)(F)C(F)(F)F (centres unmarked) [Example M26, C7 F15 CF(CF3)COO^- Na^+] |  |  | 19.4 | 3000 | 
